Assay results reported in patent publication US6667387B1, “HCV core peptides” (priority 1992, dated 2003).
Ends that are not written are not given here.

Key:
[1] = system: antibodies in sera from HCV-seropositive donors; test: ELISA with HCV antibody-positive sera (biotinylated peptides on streptavidin- or avidin-coated plates, unbiotinylated peptides coated directly); type: binding, human
Summary of the method: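 Read-out is OD at 450 nm after HRP goat anti-human Ig and TMB development, following 1 h at 37° C. with seropositive or negative sera diluted 1:100 (or 20-fold). Antigen was either unbiotinylated peptide adsorbed on plastic (pH 9.6 carbonate, 2–5 or 3 μg/ml) or biotinylated peptide at 1 μg/ml captured on streptavidin-coated wells, with casein blocking.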

[2] = ELISA with seronegative / negative control sera (specificity); type: binding, human
Summary of the method: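 Specificity readout is OD at 450 nm (HRP goat anti-human Ig, TMB/H2O2, sulfuric acid stop), with ≥0.250 counted positive. Seronegative donor sera (typically 1:100, 1 h, 37° C) were applied to casein-blocked wells coated with peptide directly or via streptavidin capture of biotinylated peptide.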

ETWKKPDYEPPVVHGCPLPP
optical density (450 nm) ([1]; Table 4G, serum 1, 20-fold dilution): 2.523
optical density (450 nm) ([1]; Table 4G, serum 33, 20-fold dilution): 1.463
optical density (450 nm) ([1]; Table 4G, serum 39, 20-fold dilution): 0.068
optical density (450 nm) ([1]; Table 4G, serum 47, 20-fold dilution): 2.117
optical density (450 nm) ([1]; Table 4G, serum 79, 20-fold dilution): 1.739
optical density (450 nm) ([1]; Table 4G, serum 83, 20-fold dilution): 1.121
optical density (450 nm) ([1]; Table 4G, serum 88, 20-fold dilution): 0.972
optical density (450 nm) ([1]; Table 4G, serum 89, 20-fold dilution): 2.079
optical density (450 nm) ([1]; Table 4G, serum 91, 20-fold dilution): 2.202
optical density (450 nm) ([1]; Table 4G, serum 99, 20-fold dilution): 1.253
optical density (450 nm) ([1]; Table 4G, serum 104, 20-fold dilution): 1.864
optical density (450 nm) ([1]; Table 4G, serum 105, 20-fold dilution): 1.522
optical density (450 nm) ([1]; Table 4G, serum 110, 20-fold dilution): 1.981
optical density (450 nm) ([1]; Table 4G, serum 111, 20-fold dilution): 1.363
optical density (450 nm) ([1]; Table 4G, serum 112, 20-fold dilution): 1.172
optical density (450 nm) ([1]; Table 4G, serum 116, 20-fold dilution): 1.534
optical density (450 nm) ([1]; Table 4G, serum 120, 20-fold dilution): 1.599
optical density (450 nm) ([1]; Table 5, sample 8242 (positive), peptide concentration 0.01 micrograms per milliliter, listed as Unbiotinylated HCV peptide XVIII): 0.048
optical density (450 nm) ([1]; Table 5, sample 8242 (positive), peptide concentration 0.03 micrograms per milliliter, listed as Unbiotinylated HCV peptide XVIII): 0.049
optical density (450 nm) ([1]; Table 5, sample 8242 (positive), peptide concentration 0.1 micrograms per milliliter, listed as Unbiotinylated HCV peptide XVIII): 0.047
optical density (450 nm) ([1]; Table 5, sample 8242 (positive), peptide concentration 0.3 micrograms per milliliter, listed as Unbiotinylated HCV peptide XVIII): 0.048
optical density (450 nm) ([1]; Table 5, sample 8242 (positive), peptide concentration 1.0 micrograms per milliliter, listed as Unbiotinylated HCV peptide XVIII): 0.049
optical density (450 nm) ([1]; Table 5, sample 8242 (positive), peptide concentration 3.0 micrograms per milliliter, listed as Unbiotinylated HCV peptide XVIII): 0.053
optical density (450 nm) ([1]; Table 5, sample 8243 (positive), peptide concentration 0.01 micrograms per milliliter, listed as Unbiotinylated HCV peptide XVIII): 0.053
optical density (450 nm) ([1]; Table 5, sample 8243 (positive), peptide concentration 0.03 micrograms per milliliter, listed as Unbiotinylated HCV peptide XVIII): 0.053
optical density (450 nm) ([1]; Table 5, sample 8243 (positive), peptide concentration 0.1 micrograms per milliliter, listed as Unbiotinylated HCV peptide XVIII): 0.051
optical density (450 nm) ([1]; Table 5, sample 8243 (positive), peptide concentration 0.3 micrograms per milliliter, listed as Unbiotinylated HCV peptide XVIII): 0.054
optical density (450 nm) ([1]; Table 5, sample 8243 (positive), peptide concentration 1.0 micrograms per milliliter, listed as Unbiotinylated HCV peptide XVIII): 0.053
optical density (450 nm) ([1]; Table 5, sample 8243 (positive), peptide concentration 3.0 micrograms per milliliter, listed as Unbiotinylated HCV peptide XVIII): 0.057
optical density (450 nm) ([1]; Table 5, sample 8318 (positive), peptide concentration 0.01 micrograms per milliliter, listed as Unbiotinylated HCV peptide XVIII): 0.048
optical density (450 nm) ([1]; Table 5, sample 8318 (positive), peptide concentration 0.03 micrograms per milliliter, listed as Unbiotinylated HCV peptide XVIII): 0.047
optical density (450 nm) ([1]; Table 5, sample 8318 (positive), peptide concentration 0.1 micrograms per milliliter, listed as Unbiotinylated HCV peptide XVIII): 0.047
optical density (450 nm) ([1]; Table 5, sample 8318 (positive), peptide concentration 0.3 micrograms per milliliter, listed as Unbiotinylated HCV peptide XVIII): 0.047
optical density (450 nm) ([1]; Table 5, sample 8318 (positive), peptide concentration 1.0 micrograms per milliliter, listed as Unbiotinylated HCV peptide XVIII): 0.045
optical density (450 nm) ([1]; Table 5, sample 8318 (positive), peptide concentration 3.0 micrograms per milliliter, listed as Unbiotinylated HCV peptide XVIII): 0.051
optical density (450 nm) ([1]; Table 5, sample 8326 (positive), peptide concentration 0.01 micrograms per milliliter, listed as Unbiotinylated HCV peptide XVIII): 0.051
optical density (450 nm) ([1]; Table 5, sample 8326 (positive), peptide concentration 0.03 micrograms per milliliter, listed as Unbiotinylated HCV peptide XVIII): 0.051
optical density (450 nm) ([1]; Table 5, sample 8326 (positive), peptide concentration 0.1 micrograms per milliliter, listed as Unbiotinylated HCV peptide XVIII): 0.049
optical density (450 nm) ([1]; Table 5, sample 8326 (positive), peptide concentration 0.3 micrograms per milliliter, listed as Unbiotinylated HCV peptide XVIII): 0.053
optical density (450 nm) ([1]; Table 5, sample 8326 (positive), peptide concentration 1.0 micrograms per milliliter, listed as Unbiotinylated HCV peptide XVIII): 0.053
optical density (450 nm) ([1]; Table 5, sample 8326 (positive), peptide concentration 3.0 micrograms per milliliter, listed as Unbiotinylated HCV peptide XVIII): 0.052
optical density (450 nm) ([2]; Table 4G, negative serum): 0.001
optical density (450 nm) ([2]; Table 5, sample 1747 (negative), peptide concentration 0.01 micrograms per milliliter, listed as Unbiotinylated HCV peptide XVIII): 0.047
optical density (450 nm) ([2]; Table 5, sample 1747 (negative), peptide concentration 0.03 micrograms per milliliter, listed as Unbiotinylated HCV peptide XVIII): 0.044
optical density (450 nm) ([2]; Table 5, sample 1747 (negative), peptide concentration 0.1 micrograms per milliliter, listed as Unbiotinylated HCV peptide XVIII): 0.045
optical density (450 nm) ([2]; Table 5, sample 1747 (negative), peptide concentration 0.3 micrograms per milliliter, listed as Unbiotinylated HCV peptide XVIII): 0.046
optical density (450 nm) ([2]; Table 5, sample 1747 (negative), peptide concentration 1.0 micrograms per milliliter, listed as Unbiotinylated HCV peptide XVIII): 0.045
optical density (450 nm) ([2]; Table 5, sample 1747 (negative), peptide concentration 3.0 micrograms per milliliter, listed as Unbiotinylated HCV peptide XVIII): 0.048
optical density (450 nm) ([2]; Table 5, sample 1781 (negative), peptide concentration 0.01 micrograms per milliliter, listed as Unbiotinylated HCV peptide XVIII): 0.053
optical density (450 nm) ([2]; Table 5, sample 1781 (negative), peptide concentration 0.03 micrograms per milliliter): 0.051
optical density (450 nm) ([2]; Table 5, sample 1781 (negative), peptide concentration 0.1 micrograms per milliliter, listed as Unbiotinylated HCV peptide XVIII): 0.051
optical density (450 nm) ([2]; Table 5, sample 1781 (negative), peptide concentration 0.3 micrograms per milliliter, listed as Unbiotinylated HCV peptide XVIII): 0.051
optical density (450 nm) ([2]; Table 5, sample 1781 (negative), peptide concentration 1.0 micrograms per milliliter, listed as Unbiotinylated HCV peptide XVIII): 0.054
optical density (450 nm) ([2]; Table 5, sample 1781 (negative), peptide concentration 3.0 micrograms per milliliter, listed as Unbiotinylated HCV peptide XVIII): 0.055
